Experimental findings from publication PMC5404560, “Towards Selective Mycobacterial ClpP1P2 Inhibitors with Reduced Activity against the Human Proteasome” (Antimicrobial Agents and Chemotherapy, 2017) are described below.

In brackets after ≈: the same amount, converted by molar mass. Where a name gives a salt, the structure may show the parent alone.

One data set addresses Elastase. The experiment in a line: Protease panel: Elastase. Type of data set: biochemical. As to conditions: supplement panel table, test and control compound.
The target in another data set is T1, FXa (Homo sapiens, UniProt P00742).
T1 construct: FXa serine peptidase
In words: Protease panel: FXa. Type of data set: biochemical. To be noted: supplement panel table, test and control compound.

A further data set deals with Kallikrein 5 (Homo sapiens, UniProt Q9Y337). In words: Protease panel: Kallikrein 5. Type of data set: biochemical. As to conditions: supplement panel table, test and control compound.
Another data set deals with Kallikrein 7 (Homo sapiens, UniProt P49862). The experiment in a line: Protease panel: Kallikrein 7. Type of data set: biochemical. To be noted: supplement panel table, test and control compound.
Another data set deals with Kallikrein 12 (Homo sapiens, UniProt Q9UKR0). In words: Protease panel: Kallikrein 12. To be noted: supplement panel table, test and control compound. Type of data set: biochemical.
For a further data set, the target named is Kallikrein 13 (Homo sapiens, UniProt Q9UKR3). In words: Protease panel: Kallikrein 13. The format is biochemical. As to conditions: supplement panel table, test and control compound.
The target in a further data set is Kallikrein 14 (Homo sapiens, UniProt Q9P0G3). The experiment in a line: Protease panel: Kallikrein 14. To be noted: supplement panel table, test and control compound. The format is biochemical.
Another data set has as its target Matriptase 2 (Homo sapiens, UniProt Q8IU80). The experiment in a line: Protease panel: Matriptase 2. The format is biochemical. To be noted: supplement panel table, test and control compound.
A further data set deals with T2, Plasma kallikrein (Homo sapiens, UniProt P03952).
T2 construct: Reaction Biology Corporation (contract testing)
The experiment in a line: Protease panel: Plasma kallikrein. Type of data set: biochemical. To be noted: supplement panel table, test and control compound.

For the next data set, the target named is T3, Plasmin (Homo sapiens, UniProt P00747).
T3 construct: Reaction Biology Corporation (contract testing)
The experiment in a line: Protease panel: Plasmin. The format is biochemical. As to conditions: supplement panel table, test and control compound.

A further data set concerns the target T4, Thrombin a (Homo sapiens, UniProt P00734).
T4 construct: Reaction Biology Corporation (contract testing)
The experiment in a line: Protease panel: Thrombin a. As to conditions: supplement panel table, test and control compound. Type of data set: biochemical.

The next data set deals with Trypsin. In words: Protease panel: Trypsin. The format is biochemical. To be noted: supplement panel table, test and control compound.
For another data set, the target named is T5, Tryptase b2 (Homo sapiens, UniProt P20231).
T5 construct: Reaction Biology Corporation (contract testing)
The experiment in a line: Protease panel: Tryptase b2. The format is biochemical. As to conditions: supplement panel table, test and control compound.

The target in the next data set is T6, Tryptase g1 (Homo sapiens, UniProt Q9NRR2).
T6 construct: Reaction Biology Corporation (contract testing)
In words: Protease panel: Tryptase g1. Type of data set: biochemical. To be noted: supplement panel table, test and control compound.

A further data set deals with T7, Urokinase (Homo sapiens, UniProt P00749).
T7 construct: Reaction Biology Corporation (contract testing)
In words: Protease panel: Urokinase. The format is biochemical. To be noted: supplement panel table, test and control compound.

The next data set deals with M. smegmatis ΔprcAB. Type of data set: cell-based. To be noted: 24 h exposure, OD600; concentration inhibiting 50% of growth.
Another data set concerns M. smegmatis wild-type. In words: Growth inhibition, M. smegmatis wild type. Type of data set: cell-based. To be noted: Mycolicibacterium smegmatis; wild-type strain.
The subject of a further data set is M. tuberculosis H37Rv. The experiment in a line: microbe, parasite or virus in culture. The format is cell-based. To be noted: Mycobacterium tuberculosis, H37RV, 120 h, 5 days.
In a further data set the test system is Mycobacterium bovis BCG. The experiment in a line: microbe, parasite or virus in culture. Type of data set: cell-based. As to conditions: Mycobacterium tuberculosis variant bovis BCG, read-out: MIC50 for Mycobacterium bovis BCG.
Data set [1] in a line: MTS cytotoxicity assay, Vero. The format is cell-based. As to conditions: African green monkey. The protocol:
(§1) The MTS (Promega) reduction assay was used according to manufacturer's guidelines to assess Vero (ATCC […]) and HepG2 (ATCC HB-8065) cell viability. […] Carbonyl cyanide m-chlorophenylhydrazone (CCCP) was used as a cytotoxic positive control. Cytotoxicity was determined twice in independent experiments.
A general note: Formazan colour is commonly taken as a measure of viable cells.

A short description of data set [2]: MTS cytotoxicity assay, HepG2. As to conditions: human. Type of data set: cell-based, human. The protocol: as §1
For another data set, the target named is ClpP1P2 (Mycolicibacterium smegmatis, UniProt A0R197+A0R198). The experiment in a line: ClpP1P2 inhibition whole-cell RFP-SsrA reporter assay. As to conditions: read-out: M. smegmatis ΔprcAB IC50 (μM) for ClpP1P2; whole-cell RFP-SsrA reporter, 3 h incubation.
Chain of ClpP1P2 (A0R198 4-203): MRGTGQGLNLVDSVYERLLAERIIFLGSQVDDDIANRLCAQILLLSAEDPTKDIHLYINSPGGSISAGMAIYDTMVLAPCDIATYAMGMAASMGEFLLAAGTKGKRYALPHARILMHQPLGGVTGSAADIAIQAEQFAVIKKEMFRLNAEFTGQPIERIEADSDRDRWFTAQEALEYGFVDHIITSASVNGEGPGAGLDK
Chain of ClpP1P2 (A0R197 17-218): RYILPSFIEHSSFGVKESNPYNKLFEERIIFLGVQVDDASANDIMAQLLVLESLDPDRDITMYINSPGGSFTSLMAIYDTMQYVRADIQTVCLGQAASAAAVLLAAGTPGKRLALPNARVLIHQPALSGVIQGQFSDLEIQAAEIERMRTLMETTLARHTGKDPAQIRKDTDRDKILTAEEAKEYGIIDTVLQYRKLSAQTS

Chain of Kallikrein 14 (Q9P0G3 41-267, species assumed): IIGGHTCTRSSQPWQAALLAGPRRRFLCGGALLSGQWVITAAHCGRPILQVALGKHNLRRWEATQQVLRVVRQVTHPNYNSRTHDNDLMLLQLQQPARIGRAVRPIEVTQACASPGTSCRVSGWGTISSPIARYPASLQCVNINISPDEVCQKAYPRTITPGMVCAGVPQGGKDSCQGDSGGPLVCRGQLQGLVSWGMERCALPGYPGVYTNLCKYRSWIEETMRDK
Chain of Kallikrein 12 (Q9UKR0 18-248, species assumed): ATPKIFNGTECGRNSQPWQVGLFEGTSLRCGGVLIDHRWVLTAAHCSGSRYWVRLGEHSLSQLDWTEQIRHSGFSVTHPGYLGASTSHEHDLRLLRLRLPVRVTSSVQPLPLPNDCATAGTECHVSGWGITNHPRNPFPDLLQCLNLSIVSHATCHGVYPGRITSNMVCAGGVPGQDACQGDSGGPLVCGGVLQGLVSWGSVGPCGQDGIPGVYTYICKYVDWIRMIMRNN
Chain of Matriptase 2 (Q8IU80 whole entry, species assumed): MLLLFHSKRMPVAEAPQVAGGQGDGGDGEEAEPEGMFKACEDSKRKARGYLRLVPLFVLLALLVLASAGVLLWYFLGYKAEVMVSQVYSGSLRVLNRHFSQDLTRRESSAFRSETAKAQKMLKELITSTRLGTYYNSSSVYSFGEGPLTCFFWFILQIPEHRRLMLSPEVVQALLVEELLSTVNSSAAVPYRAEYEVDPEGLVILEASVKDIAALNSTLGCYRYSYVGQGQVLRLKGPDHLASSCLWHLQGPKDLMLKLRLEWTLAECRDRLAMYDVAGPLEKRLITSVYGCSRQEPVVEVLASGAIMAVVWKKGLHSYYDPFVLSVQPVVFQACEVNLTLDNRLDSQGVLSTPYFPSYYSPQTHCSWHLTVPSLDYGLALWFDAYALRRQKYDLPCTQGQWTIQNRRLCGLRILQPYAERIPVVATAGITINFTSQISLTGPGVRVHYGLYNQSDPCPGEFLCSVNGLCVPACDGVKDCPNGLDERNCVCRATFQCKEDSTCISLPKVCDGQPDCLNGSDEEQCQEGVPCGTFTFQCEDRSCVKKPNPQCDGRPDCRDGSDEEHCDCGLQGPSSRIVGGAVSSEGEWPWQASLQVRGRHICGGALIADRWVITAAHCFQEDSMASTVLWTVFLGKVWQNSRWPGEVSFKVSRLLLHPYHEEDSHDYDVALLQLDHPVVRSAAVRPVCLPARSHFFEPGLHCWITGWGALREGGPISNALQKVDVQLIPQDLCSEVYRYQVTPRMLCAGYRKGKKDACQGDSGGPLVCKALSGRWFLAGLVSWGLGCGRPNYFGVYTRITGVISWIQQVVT
T3 sequence (P00747 581-810 limits assumed, species assumed): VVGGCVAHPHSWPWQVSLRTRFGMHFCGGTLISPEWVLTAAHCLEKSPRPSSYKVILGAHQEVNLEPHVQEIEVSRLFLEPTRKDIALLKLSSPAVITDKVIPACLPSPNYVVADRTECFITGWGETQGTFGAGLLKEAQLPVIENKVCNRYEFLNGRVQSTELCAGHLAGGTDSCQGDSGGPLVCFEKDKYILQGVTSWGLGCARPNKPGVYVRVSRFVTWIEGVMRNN
T3 sequence (P00747 97-580 partner limits assumed, species assumed): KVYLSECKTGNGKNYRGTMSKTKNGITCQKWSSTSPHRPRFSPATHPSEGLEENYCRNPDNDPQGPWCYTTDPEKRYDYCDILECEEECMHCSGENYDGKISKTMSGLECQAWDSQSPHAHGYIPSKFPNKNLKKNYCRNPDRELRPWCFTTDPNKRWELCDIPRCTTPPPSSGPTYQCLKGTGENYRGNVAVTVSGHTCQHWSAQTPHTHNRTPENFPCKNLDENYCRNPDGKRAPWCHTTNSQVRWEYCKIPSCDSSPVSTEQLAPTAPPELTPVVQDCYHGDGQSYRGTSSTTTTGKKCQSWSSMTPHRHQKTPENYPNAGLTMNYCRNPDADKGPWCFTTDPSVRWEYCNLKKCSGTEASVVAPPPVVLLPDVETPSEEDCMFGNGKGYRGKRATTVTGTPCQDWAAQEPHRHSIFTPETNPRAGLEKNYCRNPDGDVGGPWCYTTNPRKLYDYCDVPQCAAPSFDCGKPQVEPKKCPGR
T6 sequence (Q9NRR2 20-321): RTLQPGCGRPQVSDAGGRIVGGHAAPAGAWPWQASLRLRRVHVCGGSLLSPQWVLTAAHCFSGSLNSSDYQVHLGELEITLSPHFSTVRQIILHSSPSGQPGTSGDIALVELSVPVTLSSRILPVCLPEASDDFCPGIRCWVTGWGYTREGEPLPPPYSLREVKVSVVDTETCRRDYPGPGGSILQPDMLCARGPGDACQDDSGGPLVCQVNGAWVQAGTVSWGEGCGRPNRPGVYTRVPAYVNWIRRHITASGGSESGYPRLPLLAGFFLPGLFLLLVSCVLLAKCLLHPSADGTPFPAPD
T2 sequence (P03952 20-638, species assumed): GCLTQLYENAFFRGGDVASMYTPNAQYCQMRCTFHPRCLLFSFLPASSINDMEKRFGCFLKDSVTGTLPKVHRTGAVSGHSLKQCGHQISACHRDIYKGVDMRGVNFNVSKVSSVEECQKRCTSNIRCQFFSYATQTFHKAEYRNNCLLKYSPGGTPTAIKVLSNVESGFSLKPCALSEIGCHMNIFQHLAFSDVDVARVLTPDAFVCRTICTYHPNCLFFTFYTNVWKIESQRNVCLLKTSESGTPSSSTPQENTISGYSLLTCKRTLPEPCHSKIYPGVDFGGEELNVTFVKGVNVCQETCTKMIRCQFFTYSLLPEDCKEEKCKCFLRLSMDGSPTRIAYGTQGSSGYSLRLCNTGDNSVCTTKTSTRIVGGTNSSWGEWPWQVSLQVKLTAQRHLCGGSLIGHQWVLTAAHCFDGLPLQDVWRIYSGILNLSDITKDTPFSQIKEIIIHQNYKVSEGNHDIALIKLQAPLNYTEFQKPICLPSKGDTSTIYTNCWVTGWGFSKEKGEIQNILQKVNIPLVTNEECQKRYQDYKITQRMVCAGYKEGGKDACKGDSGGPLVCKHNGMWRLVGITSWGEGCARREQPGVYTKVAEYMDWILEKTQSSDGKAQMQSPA
T5 sequence (P20231 31-275): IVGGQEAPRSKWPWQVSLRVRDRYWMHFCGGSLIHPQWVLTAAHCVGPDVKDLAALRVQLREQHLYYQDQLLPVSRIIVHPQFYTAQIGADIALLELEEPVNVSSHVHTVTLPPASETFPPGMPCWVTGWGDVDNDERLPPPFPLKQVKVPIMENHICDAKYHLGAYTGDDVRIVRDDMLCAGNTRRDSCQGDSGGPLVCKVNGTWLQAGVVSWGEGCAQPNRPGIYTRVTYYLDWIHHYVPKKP
Chain of Kallikrein 7 (P49862 30-253, species assumed): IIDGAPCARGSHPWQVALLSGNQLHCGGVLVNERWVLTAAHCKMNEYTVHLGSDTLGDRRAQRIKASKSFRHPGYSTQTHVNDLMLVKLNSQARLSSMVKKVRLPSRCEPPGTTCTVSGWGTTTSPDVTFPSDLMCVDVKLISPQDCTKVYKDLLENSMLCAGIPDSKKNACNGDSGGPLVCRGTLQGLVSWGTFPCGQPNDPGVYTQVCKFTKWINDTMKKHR
Chain of Kallikrein 13 (Q9UKR3 17-277, species assumed): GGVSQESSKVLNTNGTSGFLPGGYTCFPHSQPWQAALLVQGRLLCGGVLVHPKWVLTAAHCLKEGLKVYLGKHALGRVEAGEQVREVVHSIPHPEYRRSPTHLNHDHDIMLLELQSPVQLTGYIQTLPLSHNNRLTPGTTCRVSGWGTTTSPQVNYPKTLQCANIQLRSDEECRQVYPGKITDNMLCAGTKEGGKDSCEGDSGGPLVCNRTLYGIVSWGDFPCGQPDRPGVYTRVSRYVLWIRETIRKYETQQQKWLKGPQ
Chain of Kallikrein 5 (Q9Y337 23-293, species assumed): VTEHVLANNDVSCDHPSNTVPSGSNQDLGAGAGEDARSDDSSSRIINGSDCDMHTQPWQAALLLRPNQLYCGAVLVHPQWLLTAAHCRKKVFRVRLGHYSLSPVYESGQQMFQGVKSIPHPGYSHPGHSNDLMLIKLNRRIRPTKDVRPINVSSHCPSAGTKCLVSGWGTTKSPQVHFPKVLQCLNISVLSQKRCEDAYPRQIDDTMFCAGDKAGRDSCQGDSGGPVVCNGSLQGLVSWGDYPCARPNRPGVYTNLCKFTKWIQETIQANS
T1 sequence (P00742 235-488 limits assumed): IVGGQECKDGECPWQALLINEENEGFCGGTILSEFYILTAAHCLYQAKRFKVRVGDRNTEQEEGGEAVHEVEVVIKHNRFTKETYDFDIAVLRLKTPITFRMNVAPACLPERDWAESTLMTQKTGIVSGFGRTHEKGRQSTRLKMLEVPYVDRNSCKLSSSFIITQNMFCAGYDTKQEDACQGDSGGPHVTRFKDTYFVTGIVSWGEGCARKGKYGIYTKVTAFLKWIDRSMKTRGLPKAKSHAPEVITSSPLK
T1 sequence (P00742 41-179 partner limits assumed): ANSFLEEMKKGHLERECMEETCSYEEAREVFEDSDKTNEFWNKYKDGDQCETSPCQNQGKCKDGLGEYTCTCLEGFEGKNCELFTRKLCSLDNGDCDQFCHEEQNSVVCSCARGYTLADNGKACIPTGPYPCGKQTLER
Experimental for Elastase: (§2) Protease panel testing was carried out by Reaction Biology Corporation.
Experimental for FXa: as §2
Experimental for Kallikrein 12: as §2
Experimental for Kallikrein 13: as §2
Experimental for Kallikrein 14: as §2
Experimental for Kallikrein 5: as §2
Experimental for Kallikrein 7: as §2
Experimental for Matriptase 2: as §2
Experimental for Plasma kallikrein: as §2
Experimental for Plasmin: as §2
Experimental for Thrombin a: as §2
Experimental for Trypsin: as §2
Experimental for Tryptase b2: as §2
Experimental for Tryptase g1: as §2
Experimental for Urokinase: as §2

A word on the IC50: it is the concentration that inhibits the measured activity by half. Consider `CCOC(=O)c1ccc(OC(=O)CCCCCN=C(N)N)cc1` [Gabexate mesylate (GM), Gabexate mesylate], for which the IC50 stood at 1.81 µM against Elastase; 5.3 µM at FXa; 8.06 µM at Kallikrein 5; 29.3 µM at Kallikrein 7; 0.351 µM at Kallikrein 12; 17.6 µM against Kallikrein 13. Besides, the IC50 against Kallikrein 14 amounted to 0.969 µM; at Matriptase 2, 7.56 µM; against Plasma kallikrein, 0.475 µM; against Plasmin it was 0.936 µM; on Thrombin a, 3.73 µM; with Trypsin it was 0.0669 µM. Also, the IC50 against Tryptase b2 was 0.0873 µM; on Tryptase g1 it was 0.0506 µM; on Urokinase, 0.1 µM.
Broadly, the GI50 is the concentration giving 50% growth inhibition. With `CC(C)C[C@H](NC(=O)[C@H](Cc1ccccc1)NC(=O)c1cnccn1)B(O)O` [Compound 1, bortezomib, reference compound], the “M. smegmatis ΔprcAB MIC50” value in the data set on M. smegmatis ΔprcAB amounted to 6 ± 0 µM. Besides, the MIC50 in the data set with M. smegmatis wild-type was 5 µM (≈ 1.92 µg/mL); in the data set on M. tuberculosis H37Rv (read-out: MIC50 (μM) against M. tuberculosis H37Rv), 4.3 ± 1.3 µM (≈ 1.65 µg/mL); in the data set with Mycobacterium bovis BCG it was 1.8 µM (≈ 0.692 µg/mL). Further, the MIC90 in the data set with M. tuberculosis H37Rv (read-out: MIC90 (μM) against M. tuberculosis H37Rv) came to 12 ± 0.5 µM (≈ 4.61 µg/mL). Further, the GI50 turned out to be 250000 nM in data set [1] and 400000 nM in data set [2]. In addition, on ClpP1P2, the IC50 amounted to 6 ± 0.5 µM.
